Assay results as given in the supplement of paper PMC10883282.
± gives the standard deviation of the averaged measurements.

Legend:
Test in all cases: relative viability vs DMSO control (72 h) (fraction); higher = more viable cells
A204 = tested on: A204
Procedure, shortened: (§1)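 Sarcoma cell lines were grown in 384-well plates seeded toward 80–90% confluence and exposed 24 h later to serially diluted compound. After 72 h at 37 °C and 5% CO2, with 0.1% DMSO vehicle and a 5 µM positive control on the plates, ATPLite was read. Relative viability, given as percent growth averaged over up to triplicate wells, was rescaled so that 1 is full and 0 is none.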

G401 = tested on: G401
Procedure, shortened: as §1

HS729 = tested on: HS729
Procedure, shortened: as §1

KHOS-240S = tested on: KHOS-240S
Procedure, shortened: as §1

MES-SA = tested on: MES-SA
Procedure, shortened: as §1

RD = tested on: RD
Procedure, shortened: as §1

SK-ES-1 = tested on: SK-ES-1
Procedure, shortened: as §1

SK-LMS-1 = tested on: SK-LMS-1
Procedure, shortened: as §1

SW1353 = tested on: SW1353
Procedure, shortened: as §1

SW872 = tested on: SW872
Procedure, shortened: as §1

SW982 = tested on: SW982
Procedure, shortened: as §1

VA-ES-BJ = tested on: VA-ES-BJ
Procedure, shortened: as §1

Clc1ccc(Nc2nnc(Cc3ccncc3)c3ccccc23)cc1 [Vatalanib]
Conditions | relative viability
A204, 0.00017 µM | 1.05 ± 0.045
A204, 0.00051 µM | 1.09 ± 0.025
A204, 0.00152 µM | 1.04 ± 0.032
A204, 0.00457 µM | 1.03 ± 0.081
A204, 0.01372 µM | 1.04 ± 0.036
A204, 0.04115 µM | 1.02 ± 0.042
A204, 0.1235 µM | 0.972 ± 0.067
A204, 0.3704 µM | 0.904 ± 0.039
A204, 1.111 µM | 0.7796 ± 0.0073
A204, 3.333 µM | 0.483 ± 0.025
A204, 10 µM | 0.365 ± 0.017
G401, 0.00017 µM | 0.965 ± 0.029
G401, 0.00051 µM | 0.975 ± 0.03
G401, 0.00152 µM | 0.954 ± 0.037
G401, 0.00457 µM | 0.973 ± 0.048
G401, 0.01372 µM | 0.979 ± 0.049
G401, 0.04115 µM | 1 ± 0.028
G401, 0.1235 µM | 0.947 ± 0.053
G401, 0.3704 µM | 0.985 ± 0.024
G401, 1.111 µM | 0.933 ± 0.024
G401, 3.333 µM | 0.876 ± 0.029
G401, 10 µM | 0.7239 ± 0.00095
HS729, 0.00017 µM | 0.874 ± 0.024
HS729, 0.00051 µM | 0.906 ± 0.017
HS729, 0.00152 µM | 0.915 ± 0.028
HS729, 0.00457 µM | 0.88 ± 0.057
HS729, 0.01372 µM | 0.916 ± 0.072
HS729, 0.04115 µM | 0.896 ± 0.083
HS729, 0.1235 µM | 0.864 ± 0.03
HS729, 0.3704 µM | 0.871 ± 0.02
HS729, 1.111 µM | 0.832 ± 0.038
HS729, 3.333 µM | 0.898 ± 0.029
HS729, 10 µM | 0.934 ± 0.078
KHOS-240S, 0.00017 µM | 1.03 ± 0.023
KHOS-240S, 0.00051 µM | 1.06 ± 0.048
KHOS-240S, 0.00152 µM | 1.05 ± 0.017
KHOS-240S, 0.00457 µM | 1.04 ± 0.064
KHOS-240S, 0.01372 µM | 1.04 ± 0.021
KHOS-240S, 0.04115 µM | 1.01 ± 0.029
KHOS-240S, 0.1235 µM | 1.04 ± 0.02
KHOS-240S, 0.3704 µM | 1.03 ± 0.02
KHOS-240S, 1.111 µM | 0.986 ± 0.044
KHOS-240S, 3.333 µM | 1.01 ± 0.016
KHOS-240S, 10 µM | 1 ± 0.015
MES-SA, 0.00017 µM | 0.897 ± 0.05
MES-SA, 0.00051 µM | 0.905 ± 0.03
MES-SA, 0.00152 µM | 0.908 ± 0.023
MES-SA, 0.00457 µM | 0.902 ± 0.048
MES-SA, 0.01372 µM | 0.925 ± 0.024
MES-SA, 0.04115 µM | 0.92 ± 0.043
MES-SA, 0.1235 µM | 0.922 ± 0.046
MES-SA, 0.3704 µM | 0.938 ± 0.031
MES-SA, 1.111 µM | 0.937 ± 0.046
MES-SA, 3.333 µM | 0.919 ± 0.012
MES-SA, 10 µM | 0.854 ± 0.042
RD, 0.00017 µM | 1.09 ± 0.035
RD, 0.00051 µM | 1.1 ± 0.031
RD, 0.00152 µM | 1.1 ± 0.024
RD, 0.00457 µM | 1.095 ± 0.005
RD, 0.01372 µM | 1.093 ± 0.0065
RD, 0.04115 µM | 1.08 ± 0.033
RD, 0.1235 µM | 1.09 ± 0.025
RD, 0.3704 µM | 1.12 ± 0.02
RD, 1.111 µM | 1.12 ± 0.03
RD, 3.333 µM | 1.11 ± 0.066
RD, 10 µM | 1.03 ± 0.023
SK-ES-1, 0.00017 µM | 0.978 ± 0.03
SK-ES-1, 0.00051 µM | 0.987 ± 0.065
SK-ES-1, 0.00152 µM | 0.968 ± 0.053
SK-ES-1, 0.00457 µM | 1.04 ± 0.044
SK-ES-1, 0.01372 µM | 1.03 ± 0.026
SK-ES-1, 0.04115 µM | 1.01 ± 0.03
SK-ES-1, 0.1235 µM | 0.995 ± 0.024
SK-ES-1, 0.3704 µM | 1.04 ± 0.024
SK-ES-1, 1.111 µM | 1.05 ± 0.053
SK-ES-1, 3.333 µM | 1.02 ± 0.031
SK-ES-1, 10 µM | 0.91 ± 0.011
SK-LMS-1, 0.00017 µM | 1.03 ± 0.027
SK-LMS-1, 0.00051 µM | 1.02 ± 0.041
SK-LMS-1, 0.00152 µM | 0.992 ± 0.045
SK-LMS-1, 0.00457 µM | 1 ± 0.041
SK-LMS-1, 0.01372 µM | 1.026 ± 0.0034
SK-LMS-1, 0.04115 µM | 1 ± 0.021
SK-LMS-1, 0.1235 µM | 1.016 ± 0.0066
SK-LMS-1, 0.3704 µM | 0.9565 ± 0.0025
SK-LMS-1, 1.111 µM | 0.967 ± 0.034
SK-LMS-1, 3.333 µM | 0.938 ± 0.026
SK-LMS-1, 10 µM | 0.858 ± 0.059
SW872, 0.00017 µM | 1.01 ± 0.018
SW872, 0.00051 µM | 1.01 ± 0.051
SW872, 0.00152 µM | 1.02 ± 0.017
SW872, 0.00457 µM | 1.026 ± 0.0018
SW872, 0.01372 µM | 0.9937 ± 0.0039
SW872, 0.04115 µM | 1.02 ± 0.037
SW872, 0.1235 µM | 1.022 ± 0.0059
SW872, 0.3704 µM | 1.021 ± 0.0013
SW872, 1.111 µM | 1.02 ± 0.042
SW872, 3.333 µM | 1.03 ± 0.0057
SW872, 10 µM | 0.971 ± 0.023
SW982, 0.00017 µM | 1.03 ± 0.036
SW982, 0.00051 µM | 1.02 ± 0.023
SW982, 0.00152 µM | 1.04 ± 0.017
SW982, 0.00457 µM | 1.05 ± 0.033
SW982, 0.01372 µM | 1.06 ± 0.01
SW982, 0.04115 µM | 1.0899 ± 0.00023
SW982, 0.1235 µM | 1.065 ± 0.0094
SW982, 0.3704 µM | 1.04 ± 0.048
SW982, 1.111 µM | 1.03 ± 0.017
SW982, 3.333 µM | 1.053 ± 0.0058
SW982, 10 µM | 1.03 ± 0.013
SW1353, 0.00017 µM | 0.9762 ± 0.0067
SW1353, 0.00051 µM | 0.9786 ± 0.0027
SW1353, 0.00152 µM | 0.939 ± 0.044
SW1353, 0.00457 µM | 0.962 ± 0.04
SW1353, 0.01372 µM | 0.935 ± 0.042
SW1353, 0.04115 µM | 0.9589 ± 0.0081
SW1353, 0.1235 µM | 0.966 ± 0.042
SW1353, 0.3704 µM | 0.978 ± 0.015
SW1353, 1.111 µM | 0.93 ± 0.029
SW1353, 3.333 µM | 0.934 ± 0.031
SW1353, 10 µM | 0.881 ± 0.022
VA-ES-BJ, 0.00017 µM | 1.01 ± 0.041
VA-ES-BJ, 0.00051 µM | 1.01 ± 0.049
VA-ES-BJ, 0.00152 µM | 1 ± 0.057
VA-ES-BJ, 0.00457 µM | 1.04 ± 0.041
VA-ES-BJ, 0.01372 µM | 1.02 ± 0.066
VA-ES-BJ, 0.04115 µM | 1.02 ± 0.054
VA-ES-BJ, 0.1235 µM | 1.03 ± 0.082
VA-ES-BJ, 0.3704 µM | 1.05 ± 0.069
VA-ES-BJ, 1.111 µM | 1.02 ± 0.053
VA-ES-BJ, 3.333 µM | 1.07 ± 0.056
VA-ES-BJ, 10 µM | 1.05 ± 0.031
